Measurements: ChEMBL document CHEMBL1201862, “PubChem BioAssay data set” (2004)
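Step 1: Grow cells in 96-well plates. Step 2: Expose to compound for 48 hours at 5 concentrations. Step 3: Interpolate endpoints linearly; if unreached, use highest concentration. GI50 marks 50% less growth.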 The source made the active and inactive calls. Cut-off read from the data, not from the text of the source: active = GI50 up to about 1.1 µM and inactive = higher.

Experiments:
Experiment in all cases: NCI tumour cell line growth inhibition, 48 h
A498 = test system: A498
BT-549 = test system: BT-549
CCRF-CEM = test system: CCRF-CEM
HCC 2998 = test system: HCC 2998
HCT-116 = test system: HCT-116
HCT-15 = test system: HCT-15
HT-29 = test system: HT-29
KM12 = test system: KM12
MCF7 = test system: MCF7
MDA-MB-231 = test system: MDA-MB-231
MDA-N = test system: MDA-N
MOLT-4 = test system: MOLT-4
NCI-H23 = test system: NCI-H23
SF-295 = test system: SF-295
SK-MEL-5 = test system: SK-MEL-5
SN12C = test system: SN12C
SR = test system: SR
TK-10 = test system: TK-10
U-251 = test system: U-251
UACC-257 = test system: UACC-257

Row | SMILES | GI50 (A498) | GI50 (BT-549) | GI50 (CCRF-CEM) | GI50 (HCC 2998) | GI50 (HCT-116) | GI50 (HCT-15) [µM] | GI50 (HT-29) | GI50 (KM12) | GI50 (MCF7) | GI50 (MDA-MB-231) | GI50 (MDA-N) | GI50 (MOLT-4) | GI50 (NCI-H23) | GI50 (SF-295) | GI50 (SK-MEL-5) | GI50 (SN12C) | GI50 (SR) | GI50 (TK-10) | GI50 (U-251) | GI50 (UACC-257)
1 | Nc1nnc2oc3ccc4ccccc4c3cc1-2 | 24.6 µM (inactive) | 33.8 µM (inactive) | 24.5 µM (inactive) | 20.3 µM (inactive) | 34.4 µM (inactive) | 28 | 38.2 µM (inactive) | 29.7 µM (inactive) | 28 µM (inactive) | 24.5 µM (inactive) | 34 µM (inactive) | 27.7 µM (inactive) | 42.8 µM (inactive) | 26.4 µM (inactive) | 27.3 µM (inactive) | 22.9 µM (inactive) | 23.1 µM (inactive) | 42 µM (inactive) | 35.9 µM (inactive) | 28.2 µM (inactive)
2 | CCCCCCCC(=O)O[C@H]1[C@H]2[C@@H](CC1(C)C)C(=O)[C@]13O[C@H]1C(=O)[C@]1(CO1)[C@]23C | 9.16 µM (inactive) | 15.5 µM (inactive) | 0.0615 µM (active) | 5.96 µM (inactive) |  | 2.96 | 5.19 µM (inactive) | 7.73 µM (inactive) | 3.25 µM (inactive) | 25.5 µM (inactive) | 8.95 µM (inactive) | 0.251 µM (active) | 3.46 µM (inactive) | 15.8 µM (inactive) | 4.06 µM (inactive) | 4.17 µM (inactive) | 2.07 µM (inactive) | 2.75 µM (inactive) | 7.83 µM (inactive) | 2.85 µM (inactive)
3 | CCOC(=O)c1ccc(Nc2nc3ccc(C(F)(F)F)cc3nc2C(=O)OCC)cc1 | > 100 µM (inactive) | > 100 µM (inactive) | > 100 µM (inactive) | > 100 µM (inactive) | > 100 µM (inactive) | > 100 | > 100 µM (inactive) | > 100 µM (inactive) | > 100 µM (inactive) | > 100 µM (inactive) | > 100 µM (inactive) | > 100 µM (inactive) | > 100 µM (inactive) | > 100 µM (inactive) | > 100 µM (inactive) | > 100 µM (inactive) | > 100 µM (inactive) | > 100 µM (inactive) | > 100 µM (inactive) | > 100 µM (inactive)
4 | C=CC(O)C#Cc1cnc(OC)nc1OC (centres undefined) | 16.3 µM (inactive) | > 100 µM (inactive) | 17.1 µM (inactive) | > 100 µM (inactive) | 82.8 µM (inactive) | > 100 | > 100 µM (inactive) | 86.7 µM (inactive) | 14.5 µM (inactive) | > 100 µM (inactive) | > 100 µM (inactive) | 32.6 µM (inactive) | > 100 µM (inactive) | > 100 µM (inactive) | > 100 µM (inactive) | > 100 µM (inactive) | > 100 µM (inactive) | > 100 µM (inactive) | > 100 µM (inactive) | > 100 µM (inactive)
5 | O=[N+]([O-])c1ccc(O)c(/C=N/NC(=S)N2CCCCC2)c1 | 9.12 µM (inactive) | 6.14 µM (inactive) | 0.728 µM (active) | 7.73 µM (inactive) | 3.21 µM (inactive) | 1.39 | 2.33 µM (inactive) | 3.59 µM (inactive) | 4.55 µM (inactive) | 5.89 µM (inactive) | 8.26 µM (inactive) | 1.34 µM (inactive) | 3.61 µM (inactive) | 3.01 µM (inactive) | 3.7 µM (inactive) | 3.13 µM (inactive) | 2.43 µM (inactive) | 4.98 µM (inactive) | 3.53 µM (inactive) | 7.16 µM (inactive)
6 | CCOc1ccc(C2c3[nH]c4ccccc4c3CCN2C(=O)c2cccs2)cc1 (centres undefined) | 7.4 µM (inactive) | 61.9 µM (inactive) | 3.48 µM (inactive) | 2.08 µM (inactive) | 4.8 µM (inactive) | 1.74 | 5.98 µM (inactive) | 9.08 µM (inactive) | 7.6 µM (inactive) | 9.33 µM (inactive) | 6.55 µM (inactive) | 2.65 µM (inactive) | 56.4 µM (inactive) | 6.03 µM (inactive) | 5.75 µM (inactive) | > 100 µM (inactive) | 2.62 µM (inactive) | > 100 µM (inactive) | 4.07 µM (inactive) | 17.3 µM (inactive)
7 | CC(=O)O[C@H]1C#C/C=C\C#CC[C@@H]2C(=O)N(C(=O)OC(C)(C)C)[C@@H]12 | 33.4 µM (inactive) | 33.5 µM (inactive) | 1.52 µM (inactive) | 19.5 µM (inactive) | 17.4 µM (inactive) | 13.6 | 36.1 µM (inactive) | 53.7 µM (inactive) | 2.34 µM (inactive) | 55.3 µM (inactive) | 39.4 µM (inactive) | 0.199 µM (active) | 12.6 µM (inactive) | 21.3 µM (inactive) | 18.2 µM (inactive) | 18.8 µM (inactive) | 24 µM (inactive) | > 55.1 µM (inactive) | 17.7 µM (inactive) | 28.4 µM (inactive)
8 | CC(=O)OCC1OC(n2c3c(cc(C#N)c2=S)CCC3)C(OC(C)=O)C(OC(C)=O)C1OC(C)=O (centres undefined) | > 100 µM (inactive) | > 100 µM (inactive) | > 100 µM (inactive) | > 100 µM (inactive) | > 100 µM (inactive) | > 100 | > 100 µM (inactive) | > 100 µM (inactive) | > 100 µM (inactive) | > 100 µM (inactive) | > 100 µM (inactive) | 33.9 µM (inactive) | > 100 µM (inactive) | > 100 µM (inactive) | > 100 µM (inactive) | > 100 µM (inactive) | 68.4 µM (inactive) | > 100 µM (inactive) | > 100 µM (inactive) | > 100 µM (inactive)
9 | Cn1c2ccc(F)cc2c2ccc3c(c21)C(=O)C=CC3=O | 55.7 µM (inactive) | 14 µM (inactive) | 0.544 µM (active) | 26.9 µM (inactive) | 6.73 µM (inactive) | 13.7 | 19.5 µM (inactive) | 31.5 µM (inactive) | 2.2 µM (inactive) | 4.09 µM (inactive) | 13.3 µM (inactive) | 0.9 µM (active) | 13.8 µM (inactive) | 66.1 µM (inactive) | 16.9 µM (inactive) | 15.4 µM (inactive) | 1.56 µM (inactive) | 4.56 µM (inactive) | 14.3 µM (inactive) | 9.86 µM (inactive)
10 | Cc1sccc1C(=S)Nc1ccc(Cl)c(/C=N/OC(C)(C)C)c1 | 23.8 µM (inactive) | 17.7 µM (inactive) | 21.3 µM (inactive) | 16.4 µM (inactive) | 14.1 µM (inactive) | 15 | 14.3 µM (inactive) | 13.2 µM (inactive) | 11.8 µM (inactive) | 13.3 µM (inactive) | 13.3 µM (inactive) | 7.6 µM (inactive) | 15.4 µM (inactive) | 16.7 µM (inactive) | 13.2 µM (inactive) | 12.5 µM (inactive) | 17.6 µM (inactive) | 19.1 µM (inactive) | 21.6 µM (inactive) | 17 µM (inactive)
